Activity calls are given as the source filed them. The rule behind the calls is not given here.
Key:
[1] = system: S. cerevisiae wild-type background strain growth inhibition; test: growth inhibition of vps1Δ apl2Δ yeast, dose response, post-Golgi transport modulator project, S. cerevisiae, background strain comparison (AID 788); conditions: S. cerevisiae vps1Δ apl2Δ growth inhibition, dose response; measured here: wild-type background strain growth
[2] = system: S. cerevisiae vps1Δ apl2Δ growth inhibition, dose response; test: as above

SMILES | IC50 [1] | IC50 [2]
Cc1ccc(OCC(O)CN2CCN(Cc3ccc4c(c3)OCO4)CC2)c(C)c1 (configuration not stated) | > 10 µM | 2.35 µM
COc1ccc(C2=NC(C(F)(F)F)(C(F)(F)F)c3c(n(C)c(=O)n(C)c3=O)N2)cc1 | > 10 µM | > 10 µM (inactive)
Clc1ccc(-c2cnc(Oc3ccccc3)nc2)cc1 | > 10 µM | > 10 µM (inactive)
Cc1nn(Cc2cccc(C(=O)NC(C)c3ccc(C(C)(C)C)cc3)c2)c(C)c1[N+](=O)[O-] (configuration not stated) | > 10 µM | > 10 µM (inactive)
C/C(CCC12CC3CC(CC(C3)C1)C2)=N\NC(N)=S | 5.28 µM | 1.65 µM
CC(C)(C)n1nnnc1CN(Cc1cccnc1)Cc1ccccc1Cl | > 10 µM | > 10 µM (inactive)
CCSc1nnc(NC(=O)NCC(F)(F)F)s1 | > 10 µM | > 10 µM (inactive)
O=C(NC1CCCC1)C(c1ccsc1)N(C(=O)Cc1cccs1)c1ccc(F)cc1 (configuration not stated) | > 10 µM | > 10 µM (inactive)
CCN(CC)c1ccc(-c2nc3cnccc3n2C)cc1 | > 10 µM | > 10 µM (inactive)
Clc1ccc2[nH]c3c(NCC4CCCO4)ncnc3c2c1 (configuration not stated) | > 10 µM | > 10 µM (inactive)
Cc1cc(O)c(/C=N/Nc2ccc(Cl)cc2)c(=O)o1 | 4.69 µM | 3.33 µM
CCOC(=O)c1ccc(NC(=O)c2ccc(CN3CCOCC3)cc2)cc1 | > 10 µM | 24.9 µM
CCN(CC)c1ccc(CN2CC=C(c3ccc(F)cc3)CC2)cc1 | 25.8 µM | 9.87 µM
O=C(N/N=C/c1ccc([N+](=O)[O-])o1)c1cc(-c2cccc(Br)c2)nc2ccccc12 | 4.65 µM | 1.02 µM
O=C1c2cccc3c([N+](=O)[O-])ccc(c23)C(=O)N1c1ccc(Cl)cn1 | 6.08 µM | 18 µM (inactive)
Cc1ccc(C2N(c3ccc(Cl)c(Cl)c3)C(=O)C3CCCN32)o1 (configuration not stated) | > 10 µM | > 10 µM (inactive)
O=C(Nc1nnc(-c2ccc3c(c2)CCCC3)o1)c1ccccc1Cl | 10.7 µM | 14.6 µM (inactive)
CCOC(=O)c1c(-n2c(C)cc(C=C3C(=O)NC(=S)NC3=O)c2C)sc2c1CCCC2 | 11.5 µM | > 10 µM (inactive)
Cc1nc(NC(=O)c2ccccc2)sc1-c1csc(Nc2ccc(F)cc2)n1 | > 10 µM | > 10 µM (inactive)
COCCNC(=O)C(c1ccc(F)cc1)N(CC1CCCO1)C(=O)CCC(=O)Nc1ccccn1 (configuration not stated) | > 10 µM | > 10 µM (inactive)
O=c1c2cccc3c2c(nn1CN1CCOCC1)-c1ccccc1-3 | > 10 µM | > 10 µM (inactive)

SMILES | IC50 [1] | IC50 [2]
CCCCSCCCNC(=O)Nc1cccc(OC)c1 | > 10 µM | > 10 µM (inactive)
O=C1c2ccccc2C(=O)c2c1oc(C(F)(F)F)c2C(=O)c1ccccc1 | 2.2 µM | 2.92 µM (inactive)
Cc1ccc2nc(C)cc(OCC(=O)O)c2c1 | > 10 µM | > 10 µM (inactive)
CCOC(=O)c1ccc(NC(=O)c2cn(-c3ccccc3)nc2-c2ccncc2)cc1 | 11.5 µM | 19.1 µM (inactive)
CCOC(=O)C1CCN(Cc2cnc(Oc3ccc(Cl)cc3C)s2)CC1 | > 10 µM | 26 µM
Cc1cccc(-n2c(N)c(C(=O)NCCN3CCOCC3)c3nc4ccccc4nc32)c1 | > 10 µM | > 10 µM (inactive)
O=C(CCC(=O)OCC(=O)c1ccc(F)cc1)NC1CCCCC1 | > 10 µM | > 10 µM (inactive)
O=C(NCc1ccc2c(c1)OCO2)c1ccc(CS(=O)(=O)c2cccc(C(F)(F)F)c2)o1 | > 10 µM | > 10 µM (inactive)
O=C(Nc1nc(-c2ccccn2)cs1)c1ncc(Cl)c(Cl)c1Cl | 13.3 µM | 4.41 µM
COc1cccc(NC(=O)c2ccc(CN3CCN(c4ccccc4)CC3)cc2)c1 | > 10 µM | > 10 µM (inactive)
CCOC(=O)COc1ccccc1C1Nc2ccccc2C(=O)N1c1cccc(Cl)c1 (configuration not stated) | > 10 µM | 19.3 µM
N#CC1=C(N)NC(SCc2ccc(F)cc2)=C(C#N)C12CCCCC2 | 16.3 µM | 4.84 µM
Cc1cc(C)nc(N/N=C/C(Cl)=C/c2ccccc2)n1 | > 10 µM | > 10 µM (inactive)
Cc1ccc(C(C)C)c(OCCCN2CC(C)OC(C)C2)c1 (configuration not stated) | > 10 µM | 9.78 µM
C=CCc1ccc(OCCCCN2CC(C)OC(C)C2)c(OC)c1 (configuration not stated) | > 10 µM | 2.33 µM
CCC(=O)N(CCO)Cc1cc2ccc(C)c(C)c2[nH]c1=O | > 10 µM | > 10 µM (inactive)
N#CC1=C(N)C(C#N)(C#N)C(c2cccnc2)C2CC(c3ccccc3)CC=C12 (configuration not stated) | 2.97 µM | 2.89 µM
C=C(C)C1CC=C(CN2CCC(C(=O)OCC)CC2)CC1 (configuration not stated) | > 10 µM | 13.5 µM
c1ccc(Nc2cc(-c3ccccc3)nc3ncnn23)cc1 | > 10 µM | 6.29 µM
Cc1c(C)c2cc(Cl)c(O)c(CN3CCN(C)CC3)c2oc1=O | > 10 µM | > 10 µM (inactive)

From PubChem BioAssay AID788 (SRMLSC, 2007)
